These results are taken from patent US10078087B2, “Assays and enhancers of the human delta ENaC sodium channel” (SENOMYX, INC., priority 2001, dated 2018).

The target in one assay is T1, αβγ hENaC (Homo sapiens, UniProt P37088+P51168+P51170).
T1 construct: expressed in transfected cells; host or cells: Xenopus laevis oocytes injected with cRNA of each subunit
T1 sequence (P37088 1-669): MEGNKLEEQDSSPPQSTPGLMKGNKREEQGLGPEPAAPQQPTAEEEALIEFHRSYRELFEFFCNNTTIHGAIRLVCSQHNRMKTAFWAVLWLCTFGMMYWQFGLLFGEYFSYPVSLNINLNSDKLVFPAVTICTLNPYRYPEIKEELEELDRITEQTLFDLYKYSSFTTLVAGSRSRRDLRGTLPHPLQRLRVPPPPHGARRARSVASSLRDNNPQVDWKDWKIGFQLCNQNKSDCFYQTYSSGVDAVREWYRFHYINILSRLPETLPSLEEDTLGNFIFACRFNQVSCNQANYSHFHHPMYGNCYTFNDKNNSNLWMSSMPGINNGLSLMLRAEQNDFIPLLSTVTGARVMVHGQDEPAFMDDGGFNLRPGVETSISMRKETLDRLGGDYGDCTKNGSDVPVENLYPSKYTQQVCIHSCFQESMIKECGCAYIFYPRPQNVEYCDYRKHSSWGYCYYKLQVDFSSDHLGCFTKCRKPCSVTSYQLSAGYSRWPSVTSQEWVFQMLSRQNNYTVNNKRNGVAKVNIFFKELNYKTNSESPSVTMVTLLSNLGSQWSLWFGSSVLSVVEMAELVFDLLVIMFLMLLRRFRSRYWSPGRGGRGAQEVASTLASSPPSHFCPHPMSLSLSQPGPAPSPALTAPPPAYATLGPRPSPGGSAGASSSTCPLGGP
T1 sequence (P51168 1-640): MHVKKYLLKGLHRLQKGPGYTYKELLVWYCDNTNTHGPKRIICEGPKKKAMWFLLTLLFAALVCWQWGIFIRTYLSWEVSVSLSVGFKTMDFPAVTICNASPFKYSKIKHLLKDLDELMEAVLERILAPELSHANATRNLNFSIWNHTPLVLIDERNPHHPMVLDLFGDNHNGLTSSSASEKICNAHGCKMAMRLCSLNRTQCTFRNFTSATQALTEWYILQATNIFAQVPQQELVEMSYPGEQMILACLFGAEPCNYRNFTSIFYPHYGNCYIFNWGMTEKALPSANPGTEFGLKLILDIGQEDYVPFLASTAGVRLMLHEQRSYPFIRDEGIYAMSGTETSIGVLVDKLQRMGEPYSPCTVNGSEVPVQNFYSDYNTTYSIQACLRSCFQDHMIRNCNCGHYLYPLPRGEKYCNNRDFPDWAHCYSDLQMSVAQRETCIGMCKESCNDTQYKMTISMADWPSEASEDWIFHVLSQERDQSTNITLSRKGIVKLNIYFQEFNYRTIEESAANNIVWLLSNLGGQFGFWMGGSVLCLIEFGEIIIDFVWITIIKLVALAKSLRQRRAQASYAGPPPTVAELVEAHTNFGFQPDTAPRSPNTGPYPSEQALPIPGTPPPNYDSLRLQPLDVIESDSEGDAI
T1 sequence (P51170 1-649): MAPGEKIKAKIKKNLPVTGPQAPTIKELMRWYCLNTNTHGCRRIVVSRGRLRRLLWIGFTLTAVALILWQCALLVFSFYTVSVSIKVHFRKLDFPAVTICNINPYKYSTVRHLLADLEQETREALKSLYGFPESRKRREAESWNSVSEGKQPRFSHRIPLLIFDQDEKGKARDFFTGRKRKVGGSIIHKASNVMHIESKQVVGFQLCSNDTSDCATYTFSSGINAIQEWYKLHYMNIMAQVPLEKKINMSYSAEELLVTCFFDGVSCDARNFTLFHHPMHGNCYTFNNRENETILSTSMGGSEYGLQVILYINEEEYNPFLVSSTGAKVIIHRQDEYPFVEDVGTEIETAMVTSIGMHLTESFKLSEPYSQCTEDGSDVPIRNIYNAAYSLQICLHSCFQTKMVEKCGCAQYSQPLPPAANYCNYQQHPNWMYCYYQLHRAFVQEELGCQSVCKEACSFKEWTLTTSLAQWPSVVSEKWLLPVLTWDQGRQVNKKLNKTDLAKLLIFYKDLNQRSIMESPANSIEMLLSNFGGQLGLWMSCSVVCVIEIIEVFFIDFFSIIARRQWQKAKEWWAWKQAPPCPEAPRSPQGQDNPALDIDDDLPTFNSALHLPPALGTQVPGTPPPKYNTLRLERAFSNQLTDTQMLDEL
Kind of assay: two-electrode voltage clamp of oocytes expressing alpha beta gamma hENaC. Type of assay: cell-based. On the technique in general: In two-electrode clamp one electrode senses voltage and the other passes current.

In another assay the target is T2, δβγ hENaC (Homo sapiens, UniProt P51168+P51170+P51172).
T2 construct: expressed in transfected cells; host or cells: Xenopus laevis oocytes injected with cRNA of each subunit
T2 sequence (P51172 1-638 isoform P51172-1): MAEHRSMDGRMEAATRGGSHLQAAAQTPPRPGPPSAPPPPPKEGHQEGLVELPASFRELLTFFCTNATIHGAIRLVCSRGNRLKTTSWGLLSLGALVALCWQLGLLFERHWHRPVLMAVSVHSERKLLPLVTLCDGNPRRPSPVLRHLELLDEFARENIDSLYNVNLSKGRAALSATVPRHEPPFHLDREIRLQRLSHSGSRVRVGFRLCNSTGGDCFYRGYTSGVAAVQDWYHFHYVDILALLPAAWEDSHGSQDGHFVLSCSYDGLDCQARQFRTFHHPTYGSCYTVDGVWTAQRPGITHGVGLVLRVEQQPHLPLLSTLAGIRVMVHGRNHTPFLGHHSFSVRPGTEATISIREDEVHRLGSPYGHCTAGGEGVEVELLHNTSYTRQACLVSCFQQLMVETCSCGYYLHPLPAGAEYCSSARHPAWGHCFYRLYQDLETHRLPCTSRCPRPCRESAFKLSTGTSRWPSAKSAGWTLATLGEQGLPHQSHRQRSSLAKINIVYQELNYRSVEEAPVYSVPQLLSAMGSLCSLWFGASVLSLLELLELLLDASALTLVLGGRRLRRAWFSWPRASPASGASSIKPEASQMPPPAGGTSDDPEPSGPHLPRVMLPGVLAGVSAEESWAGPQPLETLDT
T2 sequence (P51168 1-640): T1 sequence (P51168 1-640)
T2 sequence (P51170 1-649): T1 sequence (P51170 1-649)
The assay can be described thus: two-electrode voltage clamp of oocytes expressing delta beta gamma hENaC. Type of assay: cell-based. From the text: α, β, and γ hENaC were cloned from kidney cDNA (Origene, Rockville, Md.) into pcDNA3 (Invitrogen, Carlsbad, Calif.) as described previously (Kellenberger, S and Schild, L. Physiol. Rev. 82:735-767(2002). δ hENaC was cloned from testis cDNA (BD Biosciences Clontech, Palo Alto, Calif.). α hENaC sequence was identical to published sequences from lung and kidney (Rossier et al., Annu. Rev. Physiol. 64:877-897 (2002); Alvarez de la Rosa et al., Annu. Rev. Physiol. 62:573-594 (200). (Genbank accession numbers X76180 and L29007). β hENaC sequence was identical to published sequence from lung Bigiani et al. Bigiani et al., Prog. Biophys. Mol. Biol. 83:193-225 (2003). (Genbank accession number X87159) with the exception of a glycine (nucleotide triplet GGC) to alanine (nucleotide triplet GCC) substitution in our clone at amino acid 314. […] (GenBank accession number BC059391). δ hENaC sequence was identical to published sequence from kidney (Shimkets et al., Cell 79: 407414 (1994)) with the exception of a tyrosine (nucleotide triplet TAC) to cysteine (nucleotide triplet TGC) substitution in our clone at amino acid 532.
ENaC cRNA was generated from linearized plasmids using the mMESSAGE mMACHINE kit with T7 RNA polymerase according to the manufacturer's instructions (Ambion, Austin, Tex.). cRNA quality was checked by denaturing agarose gel electrophoresis and spectrophometric absorbance readings at 260 and 280 nm to ensure that full-length, non-degraded cRNA was generated.
Female Xenopus laevis South African clawed frogs greater than or equal to 9 cm in length were obtained from NASCO (Fort Atkinson, Wis.). Frogs were anesthetized in 0.15% ethyl-3-aminobenzoate methanesulfonate (Sigma, St. Louis, Mo.) in distilled water and placed on ice. […]
Unless noted otherwise, ENaC function was measured using the two-electrode voltage clamp technique on an OpusXpress 6000A parallel oocyte voltage clamp system twenty-four hours post-microinjection (Axon Instruments, Union City, Calif.). […]

Assay [1] concerns human salty taste perception. The note with it: humans; concentrations that specifically modulate ENaC function; cited from earlier work.
In assay [2] the test system is human salty taste perception. Kind of assay: effect of amiloride on human salty taste perception. Type of assay: in vivo. The settings on record: humans; levels ~300-fold above IC50 for αβγ ENaC (~10-fold over IC50 for δβγ ENaC) in oocytes.
[3] abbreviates: compound concentration not given, N = 5-7 oocytes.

A word on the inhibition: it is how much of the control response was suppressed. The IC50 is the point on the concentration scale where inhibition reaches its midpoint. Read a low IC50 as greater potency.

Text for αβγ hENaC: α, β, and γ hENaC were cloned from kidney cDNA (Origene, Rockville, Md.) into pcDNA3 (Invitrogen, Carlsbad, Calif.) as described previously (Kellenberger, S and Schild, L. Physiol. Rev. 82:735-767(2002). δ hENaC was cloned from testis cDNA (BD Biosciences Clontech, Palo Alto, Calif.). α hENaC sequence was identical to published sequences from lung and kidney (Rossier et al., Annu. Rev. Physiol. 64:877-897 (2002); Alvarez de la Rosa et al., Annu. Rev. Physiol. 62:573-594 (200). (Genbank accession numbers X76180 and L29007). β hENaC sequence was identical to published sequence from lung Bigiani et al. Bigiani et al., Prog. […] (Genbank accession number X87159) with the exception of a glycine (nucleotide triplet GGC) to alanine (nucleotide triplet GCC) substitution in our clone at amino acid 314. […]
ENaC cRNA was generated from linearized plasmids using the mMESSAGE mMACHINE kit with T7 RNA polymerase according to the manufacturer's instructions (Ambion, Austin, Tex.). cRNA quality was checked by denaturing agarose gel electrophoresis and spectrophometric absorbance readings at 260 and 280 nm to ensure that full-length, non-degraded cRNA was generated. […]

Regarding Choline C1, the “% Enhance αβγ” value on αβγ hENaC (setting [3]) is 53 +/− 17%. Also, at δβγ hENaC (setting [3]), the “% Enhance δβγ” value is 52 +/− 5%.

The compound `N=C(N)NC(=O)c1nc(Cl)c(N)nc1N` [amiloride] returned an inhibition at 1 µM at αβγ hENaC above 90%. Further, the “reduction of intensity of sodium chloride taste” value in assay [1] is listed as 15-20%. In addition, in assay [2], the “effect on perceived salt intensity” value is given as “did not elicit a significant effect”. Also, the inhibition at 10 µM on δβγ hENaC was above 90%. On δβγ hENaC (Xenopus oocytes, n=10, mean±SEM), the IC50 was 2700 ± 300 nM.
